Assay type in all cases: in vivo, mouse
The nature of data set [1]: Tolerability observations in mice given DHA.
For data set [2], the system named is wild-type mice. As to the kind of experiment: DHA and AA levels in plasma, red blood cells and pancreas following DHA therapy. Particulars: 40 mg DHA/day. As to the method:
In this Example, levels of DHA and AA in various blood components following administration of 40 mg DHA/day to mice was determined. In particular, 40 mg DHA was given to wild type mice and levels of DHA (Table 11) and AA (Table 12) were measured in plasma, red blood cells (RBC), and the pancreas. […] Accordingly, either plasma or red blood cell levels of DHA and AA (and their ratios) can be used as a diagnostic or to determine the effectiveness of treatment in the pancreas and other affected organs.

Data set [3] deals with wild-type pregnant mice. As to the kind of experiment: DHA administration to wild-type pregnant mice: fetal lung surfactant (DPPC), fetal lung and brain DHA. The source says:
The invention also provides a method for improving the amount of fetal lung surfactant in a mouse model. It appears that this is accomplished by upregulating fetal lung surfactant biosynthesis during pregnancy. This method again utilizes giving high doses of DHA which increases DHA and fetal surfactant levels in the fetal lung. Gestation in mice lasts about 19.5 days and previous reports have shown that surfactant levels in amniotic fluid are not detected until after day 16.5, equivalent to about 30 to 32 weeks gestational age in humans. Wild-type C57 mice were bred and identification of the cervical plug was used to determine the occurrence of pregnancy and gestational age. Beginning on day 9.5 of pregnancy (equivalent to about 24 weeks of gestational age in humans), mice were placed on Peptamen™ ±DHA for one week at different doses and sacrificed on day 16.5. Following sacrifice, amniotic fluid was aspirated from the amniotic sacs, and DPPC concentration determined by micro-HPTLC. In a different set of experiments, fetal lung and brain were removed, homogenized, lipids extracted with chloroform-methanol, and fatty acids transmethylated and analyzed by gas chromatography.

Data set [4] has as its system CFTR−/− mice. As to the kind of experiment: Ileal villus height in CFTR−/− mice. Particulars: 40 mg/day. As to the method: CF and WT mice were fed as outlined in the method section above. Ileal height, i.e., the villi height in the ileum, was measured in CF knockout animals treated with either Peptamen™ alone, Peptamen™ +40 mg per day DHA, or Wild Type (WT) animals treated with Peptamen™ alone. Animals were sacrificed at 50 days of age, ileum fixed in paraformaldehyde, and the height measured on micrographs at 100×. […] The results are outlined in FIG. 2. […] Statistically significant differences (p<0.005) were found between wild-type and CF mice as well as between CF+40 mg DHA/day and CF. There was no statistically significant difference between WT and CF+40 mg DHA/day. […]
Morphometry: For measurement of ileal villus height or pancreatic luminal diameter, multiple images were randomly taken at 200× using a Nikon Microphot-SA microscope equipped with a Diagnostic Instruments, Inc., Spot Digitizing System. […] Quantitation was performed using NIH Imaging Software. The differences between the means in the groups tested were evaluated using the Student's t-test.
Thus, the morphologic and morphometric studies utilized with the pancreas were also performed on the ileum. Tissue from the wild type and CFTR−/− mice was prepared for light microscopy and sections analyzed at 200×. […] Morphometric analysis is shown in FIG. 8, the villous height was quantitated using NIH image software and expressed as mean […]±S.D. (n=6). […]

The subject of data set [5] is wild-type mice. In words: Pancreas and ileum morphology in wild-type mice. Particulars: 40 mg/day for one week. As to the method:
The morphology of various organs were also studied. Sample preparation were carried out as follows: 1-2 cm of ileum adjacent to the cecum was fixed in formalin, embedded in paraffin, cut in cross-section, and stained with hematoxylin/eosin. For pancreatic analyses, 2-3 mm pieces of pancreas were fixed for 1.5 h in 2% glutaraldehyde in 0.2M cacodylate buffer. Tissue samples were then washed in 0.2M cacodylate buffer and subsequently postfixed for 1 h in 1% osmium tetroxide in 0.1 M cacodylate buffer. Tissue was embedded in epon and thick sections stained with 1% toluidine blue.
Morphometry: For measurement of ileal villus height or pancreatic luminal diameter, multiple images were randomly taken at 200× using a Nikon Microphot-SA microscope equipped with a Diagnostic Instruments, Inc., Spot Digitizing System. Images were examined in a blinded fashion by two independent observers. Quantitation was performed using NIH Imaging Software. The differences between the means in the groups tested were evaluated using the Student's t-test.

Setting [6] is: day 16.5, 20 mg/day DHA to the pregnant mouse from day 9.5.

Entries after “also recorded” stand apart in the source; their conditions may differ.

As to `CC/C=C\C/C=C\C/C=C\C/C=C\C/C=C\C/C=C\CCC(=O)O` [DHA, docosahexaenoic acid], the Diarrhea result in data set [1] (CFTR−/− or wild-type mice, 40 mg per day of DHA) is “No overt diarrhea”. Further, in data set [1] (treated pregnant mice and their newborns, monitored for up to one month), the Side effects result is reported as “no obvious long-term side effects; also recorded: no observed side effects”. Also, in data set [2] (day 2), the “Phospholipid-bound AA level in RBC” value is listed as 10.1 nmoles/100 million cells, the “Phospholipid-bound AA level in pancreas” value is recorded as 262 nmoles per total extract, the “Phospholipid-bound AA level in plasma” value came out at 227 µg/mL and the “Phospholipid-bound DHA level in pancreas” value is 67.8 nmoles per total extract. In data set [2] (day 4), the “Phospholipid-bound AA level in RBC” value is 6.2 nmoles/100 million cells, the “Phospholipid-bound AA level in pancreas” value was found to be 139 nmoles per total extract, the “Phospholipid-bound AA level in plasma” value amounted to 123 µg/mL and the “Phospholipid-bound DHA level in pancreas” value stood at 101.0 nmoles per total extract. Moreover, in data set [2] (day 7), the “Phospholipid-bound AA level in RBC” value amounted to 3.7 nmoles/100 million cells, the “Phospholipid-bound AA level in pancreas” value is listed as 104 nmoles per total extract, the “Phospholipid-bound AA level in plasma” value was determined as 84 µg/mL and the “Phospholipid-bound DHA level in pancreas” value is listed as 125 nmoles per total extract. Moreover, the “DHA in fetal brain (in words)” value in data set [3] (10 or 20 mg DHA/day to preterm wild-type pregnant mice) was “significant increase in DHA in fetal brain”. Moreover, the “DPPC concentration in amniotic fluid” value in data set [3] (day 16.5, 5 mg/day DHA from day 9.5) was 9.3 ± 2.6 µg/mL. Also, the “DHA concentration in fetal brain” value in data set [3] (day 16.5, 10 mg/day DHA to the pregnant mouse from day 9.5) worked out at 15.6 ± 1.1 nmoles/mg protein. Besides, the “DPPC concentration in amniotic fluid” value in data set [3] (day 16.5, 20 mg/day DHA from day 9.5) stood at 18.0 ± 3.6 µg/mL. Further, in data set [3] (setting [6]), the “DHA concentration in fetal brain” value was determined as 28.9 ± 1.9 nmoles/mg protein and the “DHA concentration in fetal lung” value came to 29.8 ± 5.5 nmoles/mg protein. Further, the Placental transfer result in data set [3] (pregnant mice) is “readily crosses the placenta”.
With `CC/C=C\C/C=C\C/C=C\CCCCCCCC(=O)O` [LNA, α-linolenic acid, reference compound], in data set [4], the “Effect on ileal/intestinal villus height (in words)” value is given as “increased intestinal villi height”. Moreover, the “Effect on pancreas morphology (in words)” value is “did not produce and observable effects on pancreas morphology” in data set [5]; “did not produce any observable effects on pancreas morphology” in data set [5] (listed as 18:3n-3).

Values taken from US20040127567A1, “Novel methods for treating disorders in which docosahexaenoic acid (DHA) levels are affected” (Beth Israel Deaconess Medical Center, Inc., priority 1998, published 2004).
